Drawing on US12258337B2, “Bicyclic CX3CR1 receptor agonists” (Board of Regents, The University of Texas System, priority 2019, dated 2025), this text covers EC50 for 14 compounds.

The term EC50 denotes the concentration at which the effect is half-maximal.

Common to all, as to format: cell-based
Assay [1] has as its target T1, hCX3CR1 (Homo sapiens, UniProt P49238).
T1 sequence (P49238 1-355): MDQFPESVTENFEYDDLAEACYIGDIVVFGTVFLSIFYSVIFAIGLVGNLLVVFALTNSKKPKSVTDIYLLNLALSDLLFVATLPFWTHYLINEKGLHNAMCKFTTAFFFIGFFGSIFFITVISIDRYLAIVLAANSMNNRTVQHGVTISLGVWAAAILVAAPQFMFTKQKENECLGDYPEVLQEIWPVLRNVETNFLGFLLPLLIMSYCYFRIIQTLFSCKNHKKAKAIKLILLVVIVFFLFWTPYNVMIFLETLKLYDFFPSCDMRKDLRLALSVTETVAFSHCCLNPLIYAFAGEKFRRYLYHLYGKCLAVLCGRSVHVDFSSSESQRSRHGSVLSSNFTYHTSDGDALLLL
Put plainly: Suchi5 assay (HEK/NatClytin/CNG/Suchi5 transiently transfected hCX3CR1, Fluo-8 Ca2+ readout). The arrangement: expressed in transfected cells; stably expresses a Ca2+ sensitive photo-protein. The following applies: Suchi5 assay, HEK/NatClytin/CNG/Suchi5 transfected with hCX3CR1; read-out: hCX3CR1 agonism EC50. The method in brief: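 HEK/NatClytin/CNG cells overexpressing Gαiq chimera Suchi5, transiently transfected with hCX3CR1, seeded 24 h before assay. Cells loaded 1 h at RT with 0.5X Fluo-8 in Tyrode buffer (pH 7.4); compounds injected on FLIPR and Ca2+ kinetic fluorescence followed for 90 s. Agonist: recombinant human fractalkine (CX3CL1).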

Another assay has as its target T2, rCX3CR1 (Rattus norvegicus, UniProt P35411).
T2 construct: expressed in transfected cells; stably expresses a Ca2+ sensitive photo-protein
T2 sequence (P35411 1-354): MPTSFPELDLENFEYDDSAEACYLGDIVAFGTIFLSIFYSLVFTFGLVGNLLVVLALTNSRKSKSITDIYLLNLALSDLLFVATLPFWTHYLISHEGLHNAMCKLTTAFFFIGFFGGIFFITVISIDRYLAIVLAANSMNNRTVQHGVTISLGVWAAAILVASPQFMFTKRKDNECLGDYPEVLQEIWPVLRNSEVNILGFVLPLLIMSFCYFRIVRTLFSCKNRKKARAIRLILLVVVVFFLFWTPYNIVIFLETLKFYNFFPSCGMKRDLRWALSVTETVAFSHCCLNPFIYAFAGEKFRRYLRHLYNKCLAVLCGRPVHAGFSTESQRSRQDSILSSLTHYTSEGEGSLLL
Put plainly: Ga16 assay, CX3CR1 agonism, Ca2+ sensitive photo-protein readout (FLIPRTETRA). The following applies: rat CX3CR1 cell line. The method in brief: (§1)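 Cells expressing human, mouse or rat CX3CR1 with a stably expressed Ca2+-sensitive photoprotein were loaded with 10 μM coelenterazine in tyrode buffer pH 7.4 for 3 h at room temperature. Agonist-mode luminescence kinetics were recorded for 90 s after compound injection on FLIPRTETRA. Dose-response runs were done in quadruplicate, with fractalkine as the reference agonist.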

The target of another assay is T3, mCX3CR1 (Mus musculus, UniProt Q9Z0D9).
T3 construct: expressed in transfected cells; stably expresses a Ca2+ sensitive photo-protein
T3 sequence (Q9Z0D9 1-354): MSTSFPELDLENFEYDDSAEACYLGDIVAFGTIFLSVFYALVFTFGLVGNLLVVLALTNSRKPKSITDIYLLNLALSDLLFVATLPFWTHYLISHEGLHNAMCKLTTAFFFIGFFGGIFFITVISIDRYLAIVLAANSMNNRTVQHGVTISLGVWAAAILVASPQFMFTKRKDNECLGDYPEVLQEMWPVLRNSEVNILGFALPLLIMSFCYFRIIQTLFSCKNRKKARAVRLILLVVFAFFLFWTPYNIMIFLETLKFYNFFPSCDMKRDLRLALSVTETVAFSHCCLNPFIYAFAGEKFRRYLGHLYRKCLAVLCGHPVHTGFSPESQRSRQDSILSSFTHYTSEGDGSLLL
The description is as above. The following applies: mouse CX3CR1 cell line. The method in brief: as §1

The target of assay [2] is T1, hCX3CR1. The assay is described as above. The arrangement: expressed in transfected cells; stably expresses a Ca2+ sensitive photo-protein. The following applies: human CX3CR1 cell line. The method in brief:
as §1

In the case of `CN(CCO)CC1(CNC(=O)c2cc3c(s2)CCCCCC3)CCC1` [Example 30, N-[[1-[[2-hydroxyethyl(methyl)amino]methyl]cyclobutyl]methyl]-4,5,6,7,8,9-hexahydrocycloocta[b]thiophene-2-carboxamide], the EC50 was determined as 36.1 µM on hCX3CR1 [1], 13.4 µM at rCX3CR1, 17 µM at mCX3CR1 and 10.2 µM on hCX3CR1 [2].
In the case of `CC(C)(CNC(=O)c1cc2c(s1)CCCCCC2)CN1CCCC1` [Example 1, N-(2,2-dimethyl-3-pyrrolidin-1-ylpropyl)-4,5,6,7,8,9-hexahydrocycloocta[b]thiophene-2-carboxamide], the EC50 on hCX3CR1 [1] amounted to 13.9 µM; at rCX3CR1, 13.9 µM; on mCX3CR1 it was 15.7 µM; on hCX3CR1 [2], 11.5 µM.
As for `CN(C)CC1(CNC(=O)c2cc3c(s2)CCCCCC3)CC(O)C1` (centres unmarked) [Example 31, N-[[1-[(dimethylamino)methyl]-3-hydroxycyclobutyl]methyl]-4,5,6,7,8,9-hexahydrocycloocta[b]thiophene-2-carboxamide], the concentration giving a half-maximal response (EC50) was determined as 4.7 µM at hCX3CR1 [1], 14.8 µM at rCX3CR1, 18.5 µM at mCX3CR1 and 9.4 µM on hCX3CR1 [2].
`CN(C)CC1(CNC(=O)c2cc3c(s2)CCCCCC3)CCCC1` [Example 2, N-[[1-[(dimethylamino)methyl]cyclopentyl]methyl]-4,5,6,7,8,9-hexahydrocycloocta[b]thiophene-2-carboxamide]: the EC50 on hCX3CR1 [1] amounted to 5.4 µM; at rCX3CR1, 8.5 µM; at mCX3CR1, 10.3 µM; at hCX3CR1 [2], 9.3 µM.
For `CC(C)(CNC(=O)c1cc2c(s1)CCCCCC2)CN1CCCCC1` [Example 13, N-(2,2-dimethyl-3-piperidin-1-ylpropyl)-4,5,6,7,8,9-hexahydrocycloocta[b]thiophene-2-carboxamide], in that order: 9.6 µM, 16.9 µM, 16 µM and 12.3 µM.
Consider `CN(C)CC1(CNC(=O)c2cc3c(s2)CCCCCC3)CCC1` [Example 23, N-[[1-[(dimethylamino)methyl]cyclobutyl]methyl]-4,5,6,7,8,9-hexahydrocycloocta[b]thiophene-2-carboxamide], for which the EC50 turned out to be 6.5 µM at hCX3CR1 [1], 9.5 µM at rCX3CR1, 11.5 µM on mCX3CR1 and 10.5 µM at hCX3CR1 [2].
On to `O=C(NCC1(CN2CCC(O)CC2)CCCC1)c1cc2c(s1)CCCCCC2` [Example 28, N-[[1-[(4-hydroxypiperidin-1-yl)methyl]cyclopentyl]methyl]-4,5,6,7,8,9-hexahydrocycloocta[b]thiophene-2-carboxamide], for which the EC50 at hCX3CR1 [1] stood at 6.7 µM; on rCX3CR1 it was 9.4 µM; on mCX3CR1, 10 µM; at hCX3CR1 [2], 8.2 µM.
With `O=C(NCC1(CN2CCCCC2)CCCC1)c1cc2c(s1)CCCCCC2` [Example 15, N-[[1-(piperidin-1-ylmethyl)cyclopentyl]methyl]-4,5,6,7,8,9-hexahydrocycloocta[b]thiophene-2-carboxamide], the EC50 was found to be 5.5 µM at hCX3CR1 [1], 20 µM on rCX3CR1, 24.2 µM at mCX3CR1 and 19.3 µM on hCX3CR1 [2].
Regarding `O=C(NCC1(CN2CCC(O)C2)CCCC1)c1cc2c(s1)CCCCCC2` (racemic) [Example 25, N-[[1-[(3-hydroxypyrrolidin-1-yl)methyl]cyclopentyl]methyl]-4,5,6,7,8,9-hexahydrocycloocta[b]thiophene-2-carboxamide], the EC50 was determined as 11.8 µM on hCX3CR1 [1], 23.1 µM on rCX3CR1, 39.7 µM on mCX3CR1 and 10.5 µM at hCX3CR1 [2].
For `O=C(NCC1(CN2CCCC2)CCC1)c1cc2c(s1)CCCCCC2` [Example 21, N-[[1-(pyrrolidin-1-ylmethyl)cyclobutyl]methyl]-4,5,6,7,8,9-hexahydrocycloocta[b]thiophene-2-carboxamide], the EC50 on hCX3CR1 [1] was 4.7 µM; on rCX3CR1 it was 5.8 µM; on mCX3CR1, 6.6 µM; on hCX3CR1 [2], 6 µM.
On to `O=C(NCC1(CN2CCCC2)CCCC1)c1cc2c(s1)CCCCCC2` [Example 5, N-[[1-(pyrrolidin-1-ylmethyl)cyclopentyl]methyl]-4,5,6,7,8,9-hexahydrocycloocta[b]thiophene-2-carboxamide], for which the EC50 at hCX3CR1 [1] is 12.9 µM; on rCX3CR1, 10.2 µM; at mCX3CR1, 11.3 µM; at hCX3CR1 [2], 8.4 µM.
In the case of `O=C(NCC1(CN2CCCC2)CC(O)C1)c1cc2c(s1)CCCCCC2` (centres unmarked) [Example 32, N-[[3-hydroxy-1-(pyrrolidin-1-ylmethyl)cyclobutyl]methyl]-4,5,6,7,8,9-hexahydrocycloocta[b]thiophene-2-carboxamide], the EC50 at hCX3CR1 [1] came out at 5.8 µM; at rCX3CR1, 11.4 µM; at mCX3CR1, 14.8 µM; on hCX3CR1 [2], 9.1 µM.
For the compound `CN(C)CC(C)(C)CNC(=O)c1cc2c(s1)CCCCCC2` [Example 70, N-[3-(dimethylamino)-2,2-dimethylpropyl]-4,5,6,7,8,9-hexahydrocycloocta[b]thiophene-2-carboxamide], the concentration for a half-maximal effect (EC50) on hCX3CR1 [1] was determined as 9.3 µM; on rCX3CR1, 26.1 µM; at mCX3CR1 it was 44.7 µM; on hCX3CR1 [2], 17 µM.
On to `O=C(NCC1(CN2CCCC(O)C2)CCCC1)c1cc2c(s1)CCCCCC2` (centres unmarked) [Example 27, N-[[1-[(3-hydroxypiperidin-1-yl)methyl]cyclopentyl]methyl]-4,5,6,7,8,9-hexahydrocycloocta[b]thiophene-2-carboxamide], for which the EC50 is 7.5 µM at hCX3CR1 [1], 10.8 µM on rCX3CR1, 12.7 µM at mCX3CR1 and 11.3 µM at hCX3CR1 [2].
